Data published in patent publication US20240383953A1, “NOVEL NAN[…] NANOG PRION-LIKE REPEATS” (BAYLOR COLLEGE OF MEDICINE, priority 2021, published 2024).
Residues, ends and D or L forms follow the SMILES beside them.

Experiment: WR peptide aggregation kinetics by ThT fluorescence
Assay type: physicochemical
Settings: not given
Method: (§1) FIGS. 7A-7H provide data and illustrations related to the fibrillation propensities of NANOG WR-derived peptides. FIG. 7A illustrates NANOG domain organization and the human and mouse NANOG WR-derived peptides used in Example 2. […] Right panels show aggregation kinetics for peptides 1-3 w (top) and 1-4 w (bottom) after 1 min equilibration. Similar results were obtained from two independent experiments. […] Similar results were obtained from two independent experiments. […] Similar results were obtained from two independent experiments. […] Similar results were obtained from two independent preparations.
(§2) Amino acids of the synthesized peptides were classified into aromatic, polar, charged and structure breakers (FIG. 7B). Applicant observed a striking degree of correlation between amino acid type distribution, and the peptide's solubilities and aggregation propensities, as monitored by Thioflavin T (ThT, amyloid binding dye) aggregation kinetics assay (FIGS. 7B-7D). Formation of β-sheet fibrils were confirmed by CD spectroscopy and Transmission Electron Microscopy. Hydrophobic/aromatic residues as well as polar residues such as Gln and Asn are commonly found in amyloid or prion-like domains. […] Aggregation kinetics was rapid; 1-4w reached maximal ThT fluorescence within 2-3 min and 1-3w ˜20 min (FIG. 7D).

Molecule	aggregation kinetics
WCTQSWNNQAWNSPFYNCGEESK [6-8w, human C-terminal WR repeats]	slower aggregation kinetics
WNTQTWCTQSWNNQAWNSPFYNCGEESK [5-8w, human C-terminal WR repeats]	slower aggregation kinetics

Experiment: WR peptide solubility (supernatant to pellet ratio after centrifugation)
Assay type: physicochemical
Settings: 0.1 and 0.2 mg/mL
Method: as §1, with “preparations. […]” for “preparations.”
as §2, with “domains. On the other hand, charged and ‘structure breaker’ residues such as Gly and Pro contribute to the peptide's higher solubility.” for “domains.”

Molecule	peptide solubility
C[C@@H](O)[C@H](NC(=O)[C@H](CO)NC(=O)[C@H](CC(N)=O)NC(=O)[C@H](CC(N)=O)NC(=O)[C@H](Cc1c[nH]c2ccccc12)NC(=O)[C@@H](NC(=O)[C@H](CCC(N)=O)NC(=O)[C@H](CC(N)=O)NC(=O)[C@H](CO)NC(=O)[C@@H](N)Cc1c[nH]c2ccccc12)[C@@H](C)O)C(=O)N[C@@H](CCCCN)C(=O)O [1-2w] (H-WSNQTWNNSTK-OH; N-terminus and C-terminus assumed)	very soluble
C[C@@H](O)[C@H](NC(=O)[C@H](CCC(N)=O)NC(=O)[C@H](CC(N)=O)NC(=O)[C@H](CO)NC(=O)[C@@H](N)Cc1c[nH]c2ccccc12)C(=O)N[C@@H](CCCCN)C(=O)O [1w, WSNQTK] (H-WSNQTK-OH; N-terminus and C-terminus assumed)	very soluble
CC[C@H](C)[C@H](NC(=O)[C@H](CC(N)=O)NC(=O)[C@H](CCC(N)=O)NC(=O)[C@@H](NC(=O)[C@H](CCC(N)=O)NC(=O)[C@H](CC(N)=O)NC(=O)[C@H](CO)NC(=O)[C@H](C)NC(=O)[C@@H](NC(=O)[C@H](CO)NC(=O)[C@H](CC(N)=O)NC(=O)[C@H](CC(N)=O)NC(=O)[C@H](C)NC(=O)[C@@H](NC(=O)[C@H](CCC(N)=O)NC(=O)[C@H](CC(N)=O)NC(=O)[C@H](CO)NC(=O)[C@H](C)N)[C@@H](C)O)[C@@H](C)O)[C@@H](C)O)C(=O)N[C@@H](CCC(N)=O)C(=O)N[C@@H](CO)C(=O)N[C@@H](Cc1c[nH]c2ccccc12)C(=O)N[C@@H](CO)C(=O)N[C@@H](CC(N)=O)C(=O)N[C@@H](Cc1c[nH]cn1)C(=O)N[C@@H](CO)C(=O)N[C@@H](CCCCN)C(=O)O [1-4wa] (H-ASNQTANNSTASNQTQNIQSWSNHSK-OH; N-terminus and C-terminus assumed)	increased solubility
WCTQSWNNQAWNSPFYNCGEESK [6-8w, human C-terminal WR repeats]	relatively higher solubility
C[C@@H](O)[C@H](NC(=O)[C@H](CCC(N)=O)NC(=O)[C@H](CC(N)=O)NC(=O)[C@H](CC(N)=O)NC(=O)[C@H](Cc1c[nH]c2ccccc12)NC(=O)[C@@H](NC(=O)[C@@H]1CCCN1C(=O)[C@H](CC(N)=O)NC(=O)[C@@H](NC(=O)[C@H](Cc1c[nH]c2ccccc12)NC(=O)[C@@H](NC(=O)[C@H](CCC(N)=O)NC(=O)[C@H](CO)NC(=O)[C@H](CO)NC(=O)[C@H](Cc1c[nH]c2ccccc12)NC(=O)[C@@H](NC(=O)[C@@H]1CCCN1C(=O)[C@H](CC(N)=O)NC(=O)[C@@H](NC(=O)[C@H](Cc1c[nH]c2ccccc12)NC(=O)[C@@H](NC(=O)[C@H](CCC(N)=O)NC(=O)[C@H](CO)NC(=O)CNC(=O)[C@@H](N)Cc1c[nH]c2ccccc12)[C@@H](C)O)[C@@H](C)O)[C@@H](C)O)[C@@H](C)O)[C@@H](C)O)[C@@H](C)O)C(=O)N[C@@H](CCCCN)C(=O)O [m1-5w] (H-WGSQTWTNPTWSSQTWTNPTWNNQTK-OH; N-terminus and C-terminus assumed)	relatively higher solubility
C[C@@H](O)[C@H](NC(=O)[C@H](CCC(N)=O)NC(=O)[C@H](CC(N)=O)NC(=O)[C@H](CO)NC(=O)[C@H](Cc1c[nH]c2ccccc12)NC(=O)[C@@H](NC(=O)[C@H](CO)NC(=O)[C@H](CC(N)=O)NC(=O)[C@H](CC(N)=O)NC(=O)[C@H](Cc1c[nH]c2ccccc12)NC(=O)[C@@H](NC(=O)[C@H](CCC(N)=O)NC(=O)[C@H](CC(N)=O)NC(=O)[C@H](CO)NC(=O)[C@@H](N)Cc1c[nH]c2ccccc12)[C@@H](C)O)[C@@H](C)O)C(=O)N[C@@H](CCCNC(=N)N)C(=O)N[C@@H](CCCNC(=N)N)C(=O)N[C@@H](CCCNC(=N)N)C(=O)N[C@@H](CCCNC(=N)N)C(=O)N[C@@H](CCCNC(=N)N)C(=O)N[C@@H](CCCNC(=N)N)C(=O)N[C@@H](CCCCN)C(=O)N[C@@H](CCCCN)C(=O)N[C@@H](CS)C(=O)O [1-3wRRK] (H-WSNQTWNNSTWSNQTRRRRRRKKC-OH; N-terminus and C-terminus assumed)	very soluble
C[C@H](NC(=O)[C@H](CCC(N)=O)NC(=O)[C@H](CO)NC(=O)[C@H](CO)NC(=O)[C@H](Cc1c[nH]c2ccccc12)NC(=O)[C@@H](NC(=O)[C@@H]1CCCN1C(=O)[C@H](CC(N)=O)NC(=O)[C@@H](NC(=O)[C@@H](N)Cc1c[nH]c2ccccc12)[C@@H](C)O)[C@@H](C)O)C(=O)N[C@@H](Cc1c[nH]c2ccccc12)C(=O)N[C@H](C(=O)N[C@@H](C)C(=O)N[C@@H](CCC(N)=O)C(=O)N[C@@H](CO)C(=O)N[C@@H](Cc1c[nH]c2ccccc12)C(=O)N[C@@H](CC(N)=O)C(=O)NCC(=O)N[C@@H](CCC(N)=O)C(=O)N1CCC[C@H]1C(=O)N[C@@H](Cc1c[nH]c2ccccc12)C(=O)N[C@@H](CC(N)=O)C(=O)N[C@@H](C)C(=O)N[C@@H](C)C(=O)N1CCC[C@H]1C(=O)N[C@@H](CCCCN)C(=O)O)[C@@H](C)O [m6-10w] (H-WTNPTWSSQAWTAQSWNGQPWNAAPK-OH; N-terminus and C-terminus assumed)	relatively higher solubility
WNTQTWCTQSWNNQAWNSPFYNCGEESK [5-8w, human C-terminal WR repeats]	relatively higher solubility
CC[C@H](C)[C@H](NC(=O)[C@H](CC(N)=O)NC(=O)[C@H](CCC(N)=O)NC(=O)[C@@H](NC(=O)[C@H](CCC(N)=O)NC(=O)[C@H](CC(N)=O)NC(=O)[C@H](CO)NC(=O)[C@H](Cc1c[nH]c2ccccc12)NC(=O)[C@@H](NC(=O)[C@H](CO)NC(=O)[C@H](CC(N)=O)NC(=O)[C@H](CC(N)=O)NC(=O)[C@H](Cc1c[nH]c2ccccc12)NC(=O)[C@@H](NC(=O)[C@H](CCC(N)=O)NC(=O)[C@H](CC(N)=O)NC(=O)[C@H](CO)NC(=O)[C@@H](N)Cc1c[nH]c2ccccc12)[C@@H](C)O)[C@@H](C)O)[C@@H](C)O)C(=O)N[C@@H](CCC(N)=O)C(=O)N[C@@H](CO)C(=O)N[C@@H](Cc1c[nH]c2ccccc12)C(=O)N[C@@H](CO)C(=O)N[C@@H](CC(N)=O)C(=O)N[C@@H](Cc1c[nH]cn1)C(=O)N[C@@H](CO)C(=O)N[C@@H](CCCCN)C(=O)O [1-4w] (H-WSNQTWNNSTWSNQTQNIQSWSNHSK-OH; N-terminus and C-terminus assumed)	more insoluble
C[C@@H](O)[C@H](NC(=O)[C@H](CCC(N)=O)NC(=O)[C@H](CC(N)=O)NC(=O)[C@H](CO)NC(=O)[C@H](Cc1c[nH]c2ccccc12)NC(=O)[C@@H](NC(=O)[C@H](CO)NC(=O)[C@H](CC(N)=O)NC(=O)[C@H](CC(N)=O)NC(=O)[C@H](Cc1c[nH]c2ccccc12)NC(=O)[C@@H](NC(=O)[C@H](CCC(N)=O)NC(=O)[C@H](CC(N)=O)NC(=O)[C@H](CO)NC(=O)[C@@H](N)Cc1c[nH]c2ccccc12)[C@@H](C)O)[C@@H](C)O)C(=O)N[C@@H](CCCCN)C(=O)O [1-3w] (H-WSNQTWNNSTWSNQTK-OH; N-terminus and C-terminus assumed)	more insoluble
